# Patent US20090238852A1, “METHODS FOR CONTROLLING INTRACELLULAR CALCIUM LEVELS ASSOCIATED WITH AN ISCHEMIC EVENT” (University of Utah Research Foundation, priority 2008, published 2009)
# System: activated clotting time (ACT)
# Assay: Porcine ischemia/reperfusion model: activated clotting time (ACT)
# Type: in vivo, pig
# Details: for ACT group difference versus control: 90 and 180 min after
# From the text: Arterial access was achieved via bilateral femoral artery cut-downs for the insertion of 8F sheaths. Central venous and carotid access was achieved via a neck incision to expose the external jugular vein and common carotid artery. Animals were then anticoagulated with 50 U/kg of unfractionated heparin to maintain an activated clotting time (ACT) between 250-350 seconds, prior to ischemia. A 7-8 Fr pigtail catheter was placed in the left ventricular cavity to measure pressure and for injection of […] microspheres. Angiography was performed to define coronary anatomy and measure the diameter of the left anterior descending coronary artery (LAD) at the point of intended balloon occlusion. A coronary sinus catheter was placed via the external jugular vein under fluoroscopic guidance for coronary venous sampling. Baseline cardiodynamic and hemodynamic data were measured using a solid state transducer-tipped catheter in the left ventricle (Millar Instruments, Houston, Tex.) to measure left ventricular pressure, and a fluid-filled transducer connected to the side port of the femoral artery sheath to measure peripheral arterial pressure. Approximately 3-4 million neutron-activated microspheres (BioPhysics Assay Laboratory, Inc, Worcester, Ma) (15 μm) were delivered through a pig-tail catheter into the left ventricle over a 30 second period, to quantify regional myocardial blood flow (RMBF). Simultaneously with injection, a reference sample was withdrawn at a rate of 7 cc/min from the femoral artery sheath, for 90 seconds during and after injection of microspheres. A contrast ventriculogram (60° right anterior oblique) was obtained to assess global and regional myocardial function at baseline. […] Balloon occlusion time was 75 minutes with coronary occlusion confirmed by contrast angiography, ST segment changes on electrocardiography, and quantitatively confirmed by microspheres delivered at the end of ischemia, as described above. […] At the end of 180 minutes of reperfusion, animals were euthanized with an IV injection of pentobarbital sodium (100 mg/kg) and the heart was excised to quantify the area at risk, infarct size, regional myocardial blood flow, and myeloperoxidase activity. Hemodynamic data (left ventricular and arterial blood pressure) and derived variables were recorded continuously using 10× and Datanalyst software (EMKA Technologies, Falls Church, Va.).
# Blood anticoagulation was measured by following the ACT, determined using the Hemochron whole blood coagulating system (Hemochron, Edison, N.J.) and measured 10 minutes after delivery of 50 U/kg of unfractionated heparin after the insertion of arterial sheaths. […]
substance,measurement,setting,value
"2-O, 3-O desulfated heparin [ODSH]",elevation above control in ACT,15 mg/kg dose group,approximately 200 seconds
same,ACT group difference versus control,"ODS 5 mg/kg, end ischemia",no significant differences in ACT
same,ACT group difference versus control,"ODS 15 mg/kg, end ischemia",no significant differences in ACT
same,ACT compared to the other groups,"ODS 45 mg/kg, end ischemia, 90 and 180 min after end of ischemia, on 50 U/kg UFH background",significantly higher
